# Test results taken from US20260232594A1, “EXCIPIENT COMPOSITION FOR THE PREPARATION OF AMORPHOUS SOLID DISPERSONS/SOLUTIONS” (UNIVERSITÄTSKLINIKUM HAMBURG-EPPENDORF, priority 2023, published 2026).
# Where a name gives a salt, the structure may show the parent alone.
# Columns and labels:
# [1] = Extrusion experiments with BZ in place of CD, extrudate analyzed via HPLC; assay type: physicochemical; conditions: extrusion 125-155° C.
# Method: For LD and BZ analytics a separate HPLC method was developed for the same equipment. The mobile phase was a 95:5 mixture of aforementioned hydrogen phosphate buffer (pH 2.5) and methanol. LD was detected at 280 nm and BZ at 268 nm. Retention times were 3.41 min (BZ) and 4.41 min (LD). The calibration for LD was the same as in the above-named method and BZ was calibrated in the same range as CD.
# Following the dissolution experiments and the subsequently adapted thermoanalyses to further investigate the thermolability of CD, extrusion experiments with BZ were conducted. For these experiments, the CD (P25/29-M) was substituted with BZ. The formulation was extruded between 125-155° C. and the extrudate analyzed via HPLC.
# [2] = Particle size analysis by laser light diffraction; assay type: physicochemical; conditions: Fraunhofer method
# Method: Laser diffraction measurements were performed with a LS 13 320 laser diffraction particle size analyzer equipped with a Tornado DPS module (Beckman Coulter Inc, Brea, CA, USA). Each API, excipient and the blend of batch P25/29-M were measured five times. Particle sizes were calculated using the Fraunhofer method.
# [3] = Stability analysis: storage in constant climate chambers, API content by HPLC; assay type: physicochemical; conditions: in P25/29-M small Donuts
# Method: Small Donuts of P25/29-M were packed in FDS/Proud packaging material Unit Dose Bags (UDB) using a FDS II Proud 336 device (Baxter International Inc., Deerfield, Il, USA) or brown glass stored in constant climate chambers (KBF P 240 and KBF S 240; Binder GmbH; Tuttlingen, Germany). […] Samples packed in UDB were stored for 7 days or 28 days in each of the previously mentioned conditions. Samples in brown glass were stored for 28 days in the 25° C./60% RH condition. After storage, the API contents of the samples were analyzed via HPLC as described in 2.2.6. Each sampling time comprised three samples.
# [4] = 3D printing of tablets by direct powder extrusion (DPE): printability and API tolerance; conditions: printing temperature 180° C.
# Excerpt: The previously blended powders were 3D printed using a M3DIMAKER™ equipped with a DPE printhead coupled with a 0.4 mm nozzle (FabRx Ltd., London, United Kingdom). Computer-aided design (CAD) models of tablets were designed using Autodesk Tinkercad (Autodesk Inc., Mill Valley, CA, U.S.A.) and processed with Repetier-Host software (Hot-World GmbH & Co. KG, Willich, Germany). To enhance powder flow, the M3DIMAKER™ was modified with a stirring element 4 (see FIG. 1).
# Tablets were printed using the following parameters: printing temperature: 180° C.; first layer height: 0.6 mm, layer height: 0.15-0.30 mm (adaptive slicing), infill: 60-100%, travel speed 70 mm/s, first layer speed 5 mm/s, perimeter speed 7.5-15 mm/s, infill speed: 15-20 mm/s with zero (Oblongs) or one (Cylinders and Donuts) top layer, two bottom layers and two shells.
# [5] = Dissolution of printed tablets, Ph. Eur. 2.9.3, 0.1 M HCl, paddle 100 rpm, HPLC; assay type: physicochemical
# Method: Dissolution experiments were carried out according to Ph. Eur. 10.6; 2.9.3 (EDQM, Ph. Eur.), with a Premiere 5100 Dissolution System (Distek Inc., North Brunswick Township, NJ, USA). […] The paddle speed was set to 100 rpm. Samples were taken after 5, 10, 15, 20, 30, 45, 60 and 90 min. A sinker was used for analyzes. For all small tablets and the large Oblongs a Distek “Japanese Basket” was used, whereas a custom 3D printed polylactic acid (PLA) sinker (not shown) was used for the large Cylinders and the large Donuts. If applicable, the dissolution profiles were compared using the f2 comparison (Moore and Flanner 1996).
# The API content of the powder blend and the dissolution samples were analyzed and evaluated with a Nexera XR HPLC system and LabSolutions software version 6.83 (both Shimadzu Corp., Nakagyo-ku, Kyoto, Japan). The Nexera XR HPLC system consists of two degassing units (DGU-20A5R) and two HPLC-pumps (LC-20ADXR) as well as an autosampler (SIL-20ACXR) a column oven (FCV-34AH) and a communication bus module (CBM-20A). Samples were dissolved and diluted in 0.1 M HCl. Turbid samples were filtered through a 0.22 μm PTFE Filter. Prior to each analytical sequence, the column was equilibrated for 30 min and the autosampler purged for 5 min. HPLC samples were measured in duplicate with an injection volume of 20 μL. […]
# [6] = Thermogravimetric analysis (TGA), thermal stability; assay type: physicochemical; conditions: for temperature at which mass loss / decomposition starts (thermogram): 40 to 300° C.
# Method: TGA analyzes were carried out with a Discovery TGA (TA Instruments, Waters, LLC, U.S.A.) and data was collected and analyzed with TA Instruments Trios software and percent mass loss or onset temperature were calculated. Two different methods were utilized. Both APIs were subjected to a temperature ramp of 10° C./min starting at 40° C. and concluding at 300° C. in open aluminum pans. CD was additionally subjected to an isothermal stress test at 180° C. for 30 min.
# [7] = assay type: physicochemical
# Method: DSC analyzes were carried out with a DSC 1 device (Mettler-Toledo, LLC, Columbus, OH, USA) operated with STARe Software V16.10. Each single component of the formulation as well as the powder blend and the extruded filament (both P25/29-M) were analyzed. Three different methods were utilized. Nitrogen was used as a purging gas at a flow rate of 50 mL/min. Every sample was heated to 250° C. (10° C./min) and kept at this temperature for 5 min. CD, LD, mannitol and the powder blend were also heated (10° C./min) to and kept at 185° C. (10 min), then cooled to 25° C. (20° C./min) and kept at this temperature for 5 min and reheated to 185° C. (10° C./min) and kept at this temperature for 10 min. Ultimately, CD and the powder blend were also heated to 182° C. (10° C./min) and kept at this temperature for 30 min.
compound,measurement,setting,value
"NC(CO)C(=O)NNCc1ccc(O)c(O)c1O (stereo not shown) [BZ, Benserazide-HCl]",substance lost during extrusion,[1],More than 70%
"C[C@@](Cc1ccc(O)c(O)c1)(NN)C(=O)O [CD, Carbidopa]",particle size d50,[2],15.3 μm
same,storage stability (in words),"[3]; brown glass, and 25/60, 7 in UDB",moderate stability
same,tolerance of the printing process (in words),[4],degraded partially during the printing process
same,substance lost during extrusion,"[5]; CD, much higher extrusion temperatures (printing 180° C.)",30-40%
same,CD recovered from the completely dissolved tablets,[5]; after the printing process,60-70%
same,loss in mass over the first 10 min (isothermal TGA),[6]; 180° C. isothermal,more than 20%
same,mass loss in the thermogram (release of hydrate water),"[6]; between ca. 90-140° C., ramp 10° C./min",about 8%
same,temperature at which mass loss / decomposition starts (thermogram),[6]; ramp 10° C./min,about 195 °C
same,time of exposition until decomposition begins (isothermal DSC),[7]; 182° C. isothermal,7 to 8 min
"N[C@@H](Cc1ccc(O)c(O)c1)C(=O)O [LD, Levodopa]",particle size d50,[2],51.8 μm
same,storage time tolerated,"[3]; both conditions (25/60, 40/75) and packagings",at least 28 days
same,tolerance of the printing process (in words),[4],able to tolerate the printing temperature
same,temperature at which mass loss / decomposition starts (thermogram),[6]; ramp 10° C./min,about 275 °C
same,temperature up to which no degradation was found (DSC and TGA),[7],> 250 °C
"OC[C@@H](O)[C@@H](O)[C@H](O)[C@H](O)CO [mannitol, Mannitol]",particle size d50,[2],345 μm
